One data set addresses T1, hAChE (Homo sapiens, UniProt P22303).
T1 construct: purchased Sigma Aldrich
Put plainly: biochemical. The following applies: read-out: % inhibition at 10 μM hAChE. From the text: (§1) Readings were made with Infinite M1000 Pro plate reader (Tecan, Cernusco s.N., Italy) and statistical regressions with Prism software (GraphPad Prism version 5.00 for Windows, GraphPad Software, San Diego, CA, USA).

A further data set deals with T2, hMAO A (Homo sapiens, UniProt P21397).
T2 construct: purchased Sigma Aldrich
T2 sequence (P21397 1-527): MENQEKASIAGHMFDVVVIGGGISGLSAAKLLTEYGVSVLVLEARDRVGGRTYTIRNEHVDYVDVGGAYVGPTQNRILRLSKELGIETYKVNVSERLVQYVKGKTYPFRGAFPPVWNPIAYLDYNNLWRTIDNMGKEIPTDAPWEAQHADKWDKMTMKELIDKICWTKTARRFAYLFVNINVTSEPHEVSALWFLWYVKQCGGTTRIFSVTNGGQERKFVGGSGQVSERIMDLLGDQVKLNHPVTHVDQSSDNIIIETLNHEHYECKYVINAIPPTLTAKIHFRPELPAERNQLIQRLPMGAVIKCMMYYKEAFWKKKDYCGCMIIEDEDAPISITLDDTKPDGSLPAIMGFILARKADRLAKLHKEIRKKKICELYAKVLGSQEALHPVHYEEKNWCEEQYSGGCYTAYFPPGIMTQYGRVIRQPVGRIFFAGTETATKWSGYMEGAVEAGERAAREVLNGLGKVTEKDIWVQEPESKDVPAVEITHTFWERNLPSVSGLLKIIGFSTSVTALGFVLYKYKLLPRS
Put plainly: biochemical.
Excerpt: as §1

Data set [1] has as its target T3, hMAO B (Homo sapiens, UniProt P27338).
T3 construct: purchased Sigma Aldrich
T3 sequence (P27338 1-520): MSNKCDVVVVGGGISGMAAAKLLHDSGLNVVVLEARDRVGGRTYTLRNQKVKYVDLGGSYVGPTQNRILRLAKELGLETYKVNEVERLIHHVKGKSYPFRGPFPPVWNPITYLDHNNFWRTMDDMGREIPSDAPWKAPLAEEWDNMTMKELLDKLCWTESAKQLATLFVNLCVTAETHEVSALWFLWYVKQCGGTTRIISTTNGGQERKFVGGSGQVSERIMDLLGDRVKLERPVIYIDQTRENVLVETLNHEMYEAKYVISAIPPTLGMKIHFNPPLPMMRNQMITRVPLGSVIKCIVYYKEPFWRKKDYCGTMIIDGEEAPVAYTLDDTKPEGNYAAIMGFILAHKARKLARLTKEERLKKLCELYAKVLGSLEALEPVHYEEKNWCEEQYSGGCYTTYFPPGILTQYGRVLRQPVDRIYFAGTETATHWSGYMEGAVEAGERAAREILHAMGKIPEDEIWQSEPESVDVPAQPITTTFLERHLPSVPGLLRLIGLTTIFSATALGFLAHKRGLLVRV
Put plainly: biochemical. The data set is classed as biochemical.

Data set [2] can be described thus: RP-HPLC lipophilicity index log k’. The settings on record: MeOH/phosphate buffer pH 7.4; methanol/PBS 60:40 v/v. The data set is classed as physicochemical. The source says: To investigate a possible correlation between MAO inhibitory potency and lipophilicity,[7] we calculated log P with three different programs (ChemDraw 15.0; ALOG PS 2.1; ChemSketch 2017, see Table S1 in Supporting Information) and compared the calculated values with experimental lipophilicity indexes as assessed by reversed‐phase (RP) HPLC in isocratic conditions for the majority of compounds. The log of capacity factors (log k’) measured by RP‐HPLC using a mixture of methanol/PBS (60 : 40, v/v) as the mobile phase are reported in Tables 1 and 2, along with Clog P values calculated with ChemDraw. These calculated lipophilicity descriptors correlated with the experimental log k’ values (n=13, r ^2=0.901) better than the other log Ps calculated by ALOG PS and ChemSketch computational tools (r ^2 equal 0.705 and 0.568, respectively). As shown by the scatter plots in Figure 4 and Figure S1 in Supporting Information, there is no evident correlation trend between MAO A/B inhibition data and lipophilicity calculated by the expert system implemented in ChemDraw for compounds achieving finite IC50 values.
Log k’ values (k’=(tr‐t0)/t0) and purity determinations were carried out using a Phenomenex Gemini C18 4.6×150 mm, with 3 μm size particles, built on a Waters double pump HPLC system in isocratic conditions. Injection volumes were 10 μL, flow rate was 0.5 mL/min, and detection was performed with UV (λ=254 and 370 nm). Samples were prepared by dissolving 0.1 mg/mL of the solute in 10 % v/v DMSO and 90 % v/v methanol. Retention times (tr) were measured at least from three separate injections, and dead time (t0) was the retention time of deuterated methanol. The mobile phase was filtered through a Supelco Nylon‐66 membrane 0.45 μm (Merck Life Science Srl, Milan, Italy) before use. For each reference compound, the average tr of three consecutive injections of 10 μL of sample was used to calculate the log k’ values. The eluent consisted of five different mixtures of methanol and PBS buffer 10 mM at pH 7.4, with methanol/buffer ratios ranging from 80 : 20 to 60 : 40 v/v.

Data set [3] can be described thus: Hydrolytic stability in buffered solution (PBS pH 7.4, 37 °C). The data set is classed as physicochemical. The settings on record: 20 μM in 10 mM PBS pH 7.4, 37 °C, 6 h incubation. On the procedure:
The hydrolytic stability of some representative imino/hydrazone/hydrazide derivatives was determined in buffered aqueous media. […]. […]. The hydrolytic degradation of 9 in its starting reagents was confirmed by the comparison of the chromatograms of 9 and 2‐chloro‐4‐hydroxyaniline, obtained in the same chromatographic conditions (Figure 6B).
Stability studies in buffered solution were performed following an already described procedure,[23] on a Phenomenex C18 column (150×4.6 mm i.d., 3 μm particle size; Phenomenex, Castel Maggiore, Italy) using a mobile phase consisting of a mixture of methanol‐water (75 : 25 v/v, with aqueous formic acid 0.1 %). The used flow rate was 0.500 mL/min while the injection volume was 20 μL. Wavelength of UV‐Vis detector was adjusted at 254 nm. The chemical stability was evaluated in a phosphate buffer solution pH 7.4 (10 mM HPO4 ^2−/H2PO4 ^−; 100 mM NaCl) at 37 °C. Five different concentrations from 0.5 μM to 20 μM were studied in a 2 h time range (data not shown). Each concentration (0.5, 1, 5, 10 and 20 μM) was tested in triplicate starting from 3 different stocks solution (1 mM) prepared separately. The time range was extended to 6 h only for the samples at 20 μM concentration (Figure 6a).

The target in data set [4] is T3, hMAO B. Details: method as in PMID 31775359. The settings on record: cited from earlier work.
A further data set has as its system SH-SY5Y cells. Put plainly: DCF-DA assay of ROS production induced by dopamine in SH-SY5Y cells. The format is cell-based, human. The following applies: 10 nM dopamine + 10 nM compound. As for the experimental part:
The immortalized neuroblastoma cells are a widely used model for neuroprotection assays, while dopamine at a concentration of 10 nM acts as an inducer of oxidative stress,[8, 9] being metabolized by MAOs to form hydrogen peroxide. Once hydrolyzed and oxidized, DCF acts as the fluorescing probe of the oxidative stress (OS) state of cells. In the presence of an antioxidant, or even of a MAO inhibitor, ROS burden is lowered and DCF fluorescence decreased. […] Its activity is superimposable to that of phenelzine, a nonselective MAO inhibitor used as a positive control in this test.[10] The same experiment performed on dantrolene in our previous work gave similar results.[1]
Reagents for cell cultures were purchased from Life Technologies (ThermoFisher Scientific, Waltham, MA, USA) unless otherwise stated. […]
ROS production in SH‐SY5Y cell line was detected using Cellular Reactive Oxygen Species Detection Assay Kit ab186027 (Abcam, Cambridge, UK), as previously described.[1] […] After incubation and washing, DCF‐DA was added, the plate was incubated, washed again with PBS, and the fluorescence read every 15 min in a 60 min time interval at 535 nm (excitation at 485 nm) using the Tecan Infinite M1000 Pro plate reader.

T1 sequence (P22303 32-614): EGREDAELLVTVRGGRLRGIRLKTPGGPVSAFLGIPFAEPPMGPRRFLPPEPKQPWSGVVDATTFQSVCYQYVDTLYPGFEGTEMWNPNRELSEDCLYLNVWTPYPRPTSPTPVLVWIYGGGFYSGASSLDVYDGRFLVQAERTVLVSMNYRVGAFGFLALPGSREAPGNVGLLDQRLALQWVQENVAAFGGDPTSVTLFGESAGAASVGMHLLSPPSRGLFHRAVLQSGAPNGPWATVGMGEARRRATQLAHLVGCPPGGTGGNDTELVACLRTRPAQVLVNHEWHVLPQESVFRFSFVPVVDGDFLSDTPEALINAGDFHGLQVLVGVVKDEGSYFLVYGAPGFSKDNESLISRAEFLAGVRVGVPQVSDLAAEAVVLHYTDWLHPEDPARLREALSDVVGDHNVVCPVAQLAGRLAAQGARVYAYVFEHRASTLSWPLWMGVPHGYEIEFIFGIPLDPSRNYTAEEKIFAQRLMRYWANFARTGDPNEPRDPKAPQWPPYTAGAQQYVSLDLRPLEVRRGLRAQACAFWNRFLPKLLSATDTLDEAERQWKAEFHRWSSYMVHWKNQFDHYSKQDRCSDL

With `CN1CCN(N=Cc2ccc(-c3ccc([N+](=O)[O-])cc3)o2)CC1` [Compound 3, N ‐(4‐methylpiperazin‐1‐yl)‐1‐(5‐(4‐nitrophenyl)furan‐2‐yl)methanimine], at hAChE, the inhibition (as a rule, the percentage by which the read-out fell short of the control) at 10 µM amounted to 44%. The IC50 (as a rule, the concentration at which inhibition is half-maximal) against hMAO A came to 5.61 ± 1.11 µM; on hMAO B [1], 3.15 ± 0.03 µM. Moreover, in data set [2], the “log k’ (logarithm of capacity factor, RP-HPLC)” value (“log k’” for short) is 0.752. In addition, the “hydrolytic stability” value in data set [3] is recorded as “substantial stability”.

For the molecule `O=C1CN(/N=C/c2ccc(-c3ccc([N+](=O)[O-])cc3)o2)C(O)=N1` [DAN, Dantrolene], the “log k’” value in data set [2] was determined as 0.115. Besides, the “Ki human MAO B” value on hMAO B [4] is reported as “low micromolar range”.

`N#Cc1ccc(-c2ccc(/C=N/c3ccc(O)cc3Cl)o2)cc1` [Compound 9]: at hAChE, the inhibition at 10 µM worked out at 30%. Further, the half-inhibitory concentration (IC50) against hMAO A worked out at 3.46 ± 0.25 µM; on hMAO B [1], 0.68 ± 0.05 µM. Moreover, the “mechanism of hMAO B inhibition” value at hMAO B [1] (Michaelis-Menten / Lineweaver-Burk) is listed as “competitive”. Besides, the “selectivity for MAO B over MAO A” value on hMAO B [1] (from IC50 values) stood at 5 fold. For the same molecule, the Ki (usually a measure of affinity in units of concentration, obtained from inhibition or displacement) at hMAO B [1] (inhibition kinetics without preincubation, kynuramine substrate) worked out at 0.5 ± 0.06 µM. Moreover, in data set [2], the “log k’” value came to 0.782. In addition, the “reduction of ROS oxidation of DCF” value with SH-SY5Y cells is listed as “effective in reducing ROS oxidation of DCF”. The molecule further gave a degradation percentage in data set [3] of 76%.

Values taken from publication PMC8518391, “Synthesis and Biological Evaluation of Dantrolene‐Like Hydrazide and Hydrazone Analogues as Multitarget Agents for Neurodegenerative Diseases” (Chemmedchem, 2021).
